This is an account of results in ChEMBL document CHEMBL4602733 (J Med Chem, 2020).

SMILES strings stand for the structures.

The target in data set [1] is T1, Histamine H3 receptor (Homo sapiens, UniProt Q9Y5N1). More on the design: species or system Sf9.
Data set [2] has as its target T2, Histamine H4 receptor (Homo sapiens, UniProt Q9H3N8). More on the design: species or system Sf9.
For a further data set, the species on record is Homo sapiens. More on the design: reference not given here.
In data set [3] the target is T2, Histamine H4 receptor. The arrangement: species or system Sf9. This is another data set of the same source.
Data set [4] addresses T1, Histamine H3 receptor. More on the design: species or system Sf9. The source holds these as a separate data set.
Data set [5] concerns the target T1, Histamine H3 receptor. More on the design: species or system Sf9. The source holds these as a separate data set.
Data set [6] deals with T1, Histamine H3 receptor. Briefly: Inhibition of UR-DEBa242 binding to human recombinant NLuc/GPCR-fused H3R expressed in HEK293T cells measured after 30 mins by furimazine substrate based BRET assay. The format is cell-based, HEK-293T. (BRET reads energy transfer from a luciferase to a nearby fluorophore.)
Data set [7] has as its target T3, Histamine H4 receptor (Mus musculus, UniProt Q91ZY2).
T3 sequence (Q91ZY2 whole entry): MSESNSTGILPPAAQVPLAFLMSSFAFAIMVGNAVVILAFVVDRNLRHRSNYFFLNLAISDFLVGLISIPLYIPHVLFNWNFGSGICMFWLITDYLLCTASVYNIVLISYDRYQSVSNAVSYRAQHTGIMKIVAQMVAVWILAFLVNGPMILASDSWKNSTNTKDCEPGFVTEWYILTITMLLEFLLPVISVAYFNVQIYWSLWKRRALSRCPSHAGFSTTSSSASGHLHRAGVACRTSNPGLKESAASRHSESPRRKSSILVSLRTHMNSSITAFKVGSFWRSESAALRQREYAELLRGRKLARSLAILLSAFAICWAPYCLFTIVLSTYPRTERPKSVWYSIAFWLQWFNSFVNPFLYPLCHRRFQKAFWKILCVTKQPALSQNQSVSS
Briefly: Inhibition of UR-DEBa242 binding to mouse recombinant NLuc/GPCR-fused H4R expressed in HEK293T cells measured after 30 mins by furimazine substrate based BRET assay. The format is cell-based, HEK-293T.

The target in data set [8] is T2, Histamine H4 receptor. Nature of the data set: Inhibition of UR-DEBa242 binding to human recombinant NLuc/GPCR-fused H4R expressed in HEK293T cells measured after 30 mins by furimazine substrate based BRET assay. The format is cell-based, HEK-293T.
The target of data set [9] is T3, Histamine H4 receptor. Briefly: Displacement of UR-DEBa176 from mouse recombinant H4R expressed in HEK293T-SF-His6-CRE-Luc cells. The format is cell-based.
Data set [10] has as its target T2, Histamine H4 receptor.
Data set [11] deals with T1, Histamine H3 receptor. Briefly: Binding affinity to human recombinant NLuc/GPCR-fused H3R expressed in HEK293T cells measured after 30 mins by furimazine substrate based BRET assay. The format is cell-based, HEK-293T.
The target in data set [12] is T1, Histamine H3 receptor. Briefly: Antagonist activity at human H3R expressed in HEK293T-SP-FLAG-hH3R-CRE-CBR cells assessed as reduction in histamine-induced inhibition of forskolin stimulated luciferase activity preincubated for 15 mins followed by forskolin and histamine addition by luciferase reporter gene assay. The format is functional, cell-based.
The target in a further data set is Histamine H1 receptor (Homo sapiens, UniProt P35367). Nature of the data set: Displacement of [3H]pyrilamine from human recombinant H1R expressed in baculovirus infected Sf9 insect cell membranes co-expressing RGS4. On the technique in general: Displacement assays read how much labelled ligand stays bound in the presence of the test substance.
Data set [13] in a line: Chemical stability of the compound in pH 7.4 phosphate buffered saline at 200 uM incubated for >= 1 hr in Sigmacote-treated 1.5 mL microtubes by RP-HPLC method. The format is physicochemical. Particulars: buffer, pH 7.4, 1 h; call rule not given here.
Data set [14] is described as follows: Chemical stability of the compound in pH 7.4 phosphate buffered saline at 200 uM incubated for >= 1 hr in 1.5 mL microtubes by RP-HPLC method. The format is physicochemical. Particulars: buffer, pH 7.4, 1 h.
For data set [15], the target named is T1, Histamine H3 receptor. Nature of the data set: Binding affinity to human recombinant NLuc/GPCR-fused H3R expressed in HEK293T cells assessed as dissociation rate constant measured after 30 mins in presence of thioperamide by furimazine substrate based BRET assay. The format is cell-based. The note with it: HEK-293T.
Data set [16] addresses T1, Histamine H3 receptor. Briefly: Binding affinity to human recombinant NLuc/GPCR-fused H3R expressed in HEK293T cells assessed as dissociation constant measured after 30 mins in presence of thioperamide by furimazine substrate based BRET assay. The format is cell-based, HEK-293T.
Data set [17] concerns the target T1, Histamine H3 receptor. Nature of the data set: Agonist activity at human H3R expressed in HEK293T-SP-FLAG-hH3R-CRE-CBR cells incubated for 5 hrs by luciferase reporter gene assay. The format is functional, cell-based. In general terms: In a reporter assay the amount or activity of a reporter protein is the signal.
The target in data set [18] is T1, Histamine H3 receptor. Nature of the data set: Binding affinity to human recombinant NLuc/GPCR-fused H3R expressed in HEK293T cells assessed as association rate constant measured after 30 mins by furimazine substrate based BRET assay. The format is cell-based. The note with it: HEK-293T.
Data set [19] concerns the target T1, Histamine H3 receptor. Nature of the data set: Binding affinity to human recombinant NLuc/GPCR-fused H3R expressed in HEK293T cells assessed as dissociation half life measured after 30 mins in presence of thioperamide by furimazine substrate based BRET assay. The format is cell-based. Particulars: HEK-293T.
The nature of data set [20]: Chemical stability of the compound in pH 7.4 phosphate buffered saline at 200 uM incubated for 5 to 6 hrs in 96-well Primaria plates by RP-HPLC method. The note with it: buffer, pH 7.4, 200 µM. The format is physicochemical.
The nature of data set [21]: Chemical stability of the compound in pH 7.4 phosphate buffered saline at 200 uM incubated for 5 to 6 hrs in white 96-well cellGrade plates by RP-HPLC method. The format is physicochemical. Particulars: buffer, pH 7.4, 200 µM.
Data set [22] can be described thus: Drug uptake in wild-type HEK293T cells at 200 nM measured after 20 mins by confocal microscopic analysis. The format is ADME, cell-based. Particulars: human, hek-293t, 0.2 µM.
Data set [23] addresses T3, Histamine H4 receptor. Nature of the data set: Antagonist activity at mouse H4R expressed in HEK293 cells co-expressing ELucC/ELucN-beta-arrestin2 assessed as inhibition of histamine-induced beta-arrestin recruitment preincubated for 15 mins followed by histamine addition by luciferase reporter gene assay. The format is cell-based.

T1 sequence (Q9Y5N1 whole entry): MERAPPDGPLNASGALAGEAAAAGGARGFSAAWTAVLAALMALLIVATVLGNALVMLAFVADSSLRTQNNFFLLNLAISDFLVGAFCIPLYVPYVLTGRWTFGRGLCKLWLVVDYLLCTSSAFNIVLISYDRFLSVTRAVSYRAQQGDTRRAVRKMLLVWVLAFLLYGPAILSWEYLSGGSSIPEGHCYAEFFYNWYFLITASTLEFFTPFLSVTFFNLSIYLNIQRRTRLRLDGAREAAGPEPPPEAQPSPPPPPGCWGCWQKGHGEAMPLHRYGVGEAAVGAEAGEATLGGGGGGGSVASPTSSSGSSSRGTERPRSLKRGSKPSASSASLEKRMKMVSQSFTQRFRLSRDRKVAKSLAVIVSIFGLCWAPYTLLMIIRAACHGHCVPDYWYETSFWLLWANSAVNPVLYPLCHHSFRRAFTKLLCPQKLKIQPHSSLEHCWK
T2 sequence (Q9H3N8 whole entry): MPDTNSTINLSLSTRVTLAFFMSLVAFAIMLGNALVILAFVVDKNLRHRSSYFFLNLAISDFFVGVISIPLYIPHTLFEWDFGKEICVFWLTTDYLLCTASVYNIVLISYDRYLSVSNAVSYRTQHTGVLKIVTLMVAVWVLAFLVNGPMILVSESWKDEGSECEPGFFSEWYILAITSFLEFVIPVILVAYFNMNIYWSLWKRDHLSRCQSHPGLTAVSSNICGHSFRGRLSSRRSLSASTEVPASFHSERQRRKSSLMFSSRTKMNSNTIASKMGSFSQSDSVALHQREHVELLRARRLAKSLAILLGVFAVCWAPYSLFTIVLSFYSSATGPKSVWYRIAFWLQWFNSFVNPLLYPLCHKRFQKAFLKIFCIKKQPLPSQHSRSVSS
Sequence of Histamine H1 receptor (P35367 whole entry): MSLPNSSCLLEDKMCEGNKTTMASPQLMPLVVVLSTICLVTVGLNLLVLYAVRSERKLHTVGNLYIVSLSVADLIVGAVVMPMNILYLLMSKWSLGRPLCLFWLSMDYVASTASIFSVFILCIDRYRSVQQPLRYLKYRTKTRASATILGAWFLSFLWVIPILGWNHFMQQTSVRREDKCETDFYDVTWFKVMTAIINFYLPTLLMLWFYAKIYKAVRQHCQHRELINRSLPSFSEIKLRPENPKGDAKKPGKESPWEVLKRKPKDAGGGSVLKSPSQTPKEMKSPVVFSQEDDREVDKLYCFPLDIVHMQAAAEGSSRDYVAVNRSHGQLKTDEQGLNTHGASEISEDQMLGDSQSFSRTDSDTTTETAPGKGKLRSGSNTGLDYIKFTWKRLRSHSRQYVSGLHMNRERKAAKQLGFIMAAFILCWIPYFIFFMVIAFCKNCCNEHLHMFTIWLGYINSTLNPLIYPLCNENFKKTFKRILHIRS

On Histamine H3 receptor [1], `Cc1cc(/C=C/C=C/c2ccc(N(C)C)cc2)cc(C)[n+]1CCCN1CCc2nc[nH]c2C1` gave a Ki of 457 nM.

As for `Cc1cc(OCCCNC(=O)CCCCCNC(=O)COc2ccc(/C=C/C3=[N+]4C(=Cc5ccc(-c6ccc[nH]6)n5[B-]4(F)F)C=C3)cc2)ccc1-c1nc2c(C)c(F)ccc2[nH]1`, the Ki is 501 nM at Histamine H3 receptor [1] and 1820 nM at Histamine H4 receptor [2].

`Cc1cc(/C=C/C=C/c2ccc(N(C)C)cc2)cc(C)[n+]1CCc1c[nH]cn1`: the Ratio Ki in the data set listed under Homo sapiens stood at 2.29. For the same molecule, the figures for the Ki at Histamine H3 receptor [1] and on Histamine H4 receptor [2] were 851 nM and 1950 nM, respectively.

As for `Cc1cc(OCCCNC(=O)CCCCCN2\C(=C/C=C/C=C/C3=[N+](CCCCS(=O)(=O)[O-])c4ccccc4C3(C)C)C(C)(C)c3ccccc32)ccc1-c1nc2c(C)c(F)ccc2[nH]1`, the Ki at Histamine H3 receptor [1] is 2400 nM.

`Cc1cc(OCCC[n+]2c(C)cc(/C=C/C=C/c3ccc(N(C)C)cc3)cc2C)ccc1-c1nc2c(C)c(F)ccc2[nH]1` had a Ki on Histamine H3 receptor [1] of 1620 nM.

As to `Cc1cc(OCCC[n+]2c(C)cc(/C=C/c3cc4c5c(c3)CCCN5CCC4)cc2C)ccc1-c1nc2c(C)c(F)ccc2[nH]1`, the Ki is 20400 nM on Histamine H3 receptor [1] and 28200 nM on Histamine H4 receptor [2].

Consider `Cc1cc(/C=C/C=C/c2ccc(N(C)C)cc2)cc(C)[n+]1CCCNCCc1c[nH]cn1`, for which the Ratio Ki in the data set filed under Homo sapiens stood at 69.2. Besides, the figures for the Ki at Histamine H3 receptor [1] and at Histamine H4 receptor [2] were 13.5 nM and 933 nM, respectively.

With `NCCCCCc1c[nH]cn1`, the Ki on Histamine H4 receptor [3] is 631 nM; on Histamine H3 receptor [4] it was 37.2 nM. The Ratio Ki in the data set listed under Homo sapiens is 17.

`Cc1cc(/C=C/C=C/c2ccc(N(C)C)cc2)cc(C)[n+]1CCCc1c[nH]cn1`: on Histamine H3 receptor [1], the affinity corresponds to a Ki of 11.7 nM.

Take `CC(C)(C)CNc1nccc(N2CCc3nc[nH]c3C2)n1`: the values for the Ki on Histamine H3 receptor [5] and on Histamine H3 receptor [6] were 3.16 nM and 0.537 nM, respectively.

For `NCCCCc1c[nH]cn1`, the Ratio Ki in the data set filed under Homo sapiens amounted to 2.95.

Consider `NC(=NCc1ccc(Cl)cc1)SCCCc1cnc[nH]1` [CLOBENPROPIT], for which the inhibition constant (Ki) is 123 nM on Histamine H4 receptor [7], 77.6 nM on Histamine H4 receptor [8], 158 nM on Histamine H4 receptor [9] and 39.8 nM at Histamine H4 receptor [10].

In the case of `NCCCc1c[nH]cn1`, the Ratio Ki in the data set listed under Homo sapiens turned out to be 0.34. This molecule had a Ki on Histamine H3 receptor [4] of 93.3 nM.

As to `Cc1cc(/C=C/C=C/c2ccc(N(C)C)cc2)cc(C)[n+]1CCCCCc1c[nH]cn1`, the Kd is 0.97 nM on Histamine H3 receptor [11] (read-out: Kd) and 1.15 nM at Histamine H3 receptor [11] (read-out: pKd (converted)). Besides, the Ki on Histamine H3 receptor [1] is 0.912 nM; on Histamine H1 receptor, > 4790 nM. Moreover, the pK at Histamine H3 receptor [12] came out at 8.71.

Consider `Cc1cc(/C=C/C=C/c2ccc(N(C)C)cc2)cc(C)[n+]1CCCCc1c[nH]cn1.O=C(O)C(F)(F)F.O=C([O-])C(F)(F)F`, for which the Stability result was “Unstable” in data set [13], “Unstable” in data set [14], “Stable” in data set [20] and “Stable” in [21]. The Kd is 1.35 to 1.94 nM at Histamine H3 receptor [11] (read-out: Kd), 1.66 nM on Histamine H3 receptor [11] (read-out: pKd (converted)), 2.54 to 6.86 nM at Histamine H3 receptor [16] (read-out: Kd) and 4.68 nM at Histamine H3 receptor [16] (read-out: pKd (converted)). The K was 2.79 min⁻¹ at Histamine H3 receptor [15] and 1.06e+07 M⁻¹ s⁻¹ at Histamine H3 receptor [18]. The Ki on Histamine H3 receptor [1] was 2.51 nM; at Histamine H1 receptor it was > 4790 nM. At Histamine H3 receptor [17], the concentration for a half-maximal effect (EC50) was 1.7 nM. In addition, the T1/2 at Histamine H3 receptor [19] came to 15 s. Besides, the Drug uptake result in [22] is reported as “Active”.

Turning to `S=C(NC1CCCCC1)N1CCC(c2cnc[nH]2)CC1` [THIOPERAMIDE], the Ki on Histamine H4 receptor [7] is 66.1 nM; at Histamine H4 receptor [9], 79.4 nM. For the same molecule, the EC50 at Histamine H4 receptor [23] is 28.2 nM.

The Ki is the dissociation constant of the complex between target and ligand, obtained from inhibition or displacement. In general, EC50 refers to the concentration giving half of the maximal effect.
